Here are results for twelve molecules from patent US20210009564A1, “CALPAIN MODULATORS AND THERAPEUTIC USES THEREOF” (BLADE THERAPERTICS, INC., priority 2018, published 2021).

pIC50: −log10 of the molar value.

One test concerns the target T1, Human Calpain 2/NS1 (Homo sapiens, UniProt P17655).
T1 sequence (P17655 1-700): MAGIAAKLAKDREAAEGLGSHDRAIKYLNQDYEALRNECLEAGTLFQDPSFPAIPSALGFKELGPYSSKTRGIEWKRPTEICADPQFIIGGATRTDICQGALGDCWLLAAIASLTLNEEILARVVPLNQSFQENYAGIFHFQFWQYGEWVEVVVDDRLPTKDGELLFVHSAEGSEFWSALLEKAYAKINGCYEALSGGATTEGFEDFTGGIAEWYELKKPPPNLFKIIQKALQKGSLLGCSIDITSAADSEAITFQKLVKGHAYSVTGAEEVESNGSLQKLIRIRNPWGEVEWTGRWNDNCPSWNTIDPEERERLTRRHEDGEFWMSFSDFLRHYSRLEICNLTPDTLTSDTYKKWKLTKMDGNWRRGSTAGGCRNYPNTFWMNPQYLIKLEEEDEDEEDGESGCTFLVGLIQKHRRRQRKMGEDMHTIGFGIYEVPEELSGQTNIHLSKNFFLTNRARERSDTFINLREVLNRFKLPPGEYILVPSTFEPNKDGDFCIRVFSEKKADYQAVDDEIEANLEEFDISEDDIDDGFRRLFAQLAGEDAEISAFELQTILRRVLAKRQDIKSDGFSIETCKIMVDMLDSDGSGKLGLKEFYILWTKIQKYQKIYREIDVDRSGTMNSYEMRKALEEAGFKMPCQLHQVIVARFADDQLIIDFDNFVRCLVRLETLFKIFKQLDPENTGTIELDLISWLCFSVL
T1 sequence (P04632 1-268 partner): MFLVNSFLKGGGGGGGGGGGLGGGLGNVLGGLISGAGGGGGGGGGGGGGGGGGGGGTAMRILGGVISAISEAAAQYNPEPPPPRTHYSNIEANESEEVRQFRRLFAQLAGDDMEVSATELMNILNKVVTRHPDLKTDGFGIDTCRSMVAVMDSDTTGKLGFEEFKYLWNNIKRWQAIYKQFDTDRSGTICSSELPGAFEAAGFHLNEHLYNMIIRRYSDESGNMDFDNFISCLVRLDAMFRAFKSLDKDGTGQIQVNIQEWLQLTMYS
Put plainly: Calpain inhibition, continuous fluorescence (FRET substrate) assay, calpain 2. The test is classed as biochemical. The conditions noted are these: SensoLyte 520 FRET substrate, 25C. The method in brief: (§1)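 Calpains preincubated with serially diluted inhibitors at 25 °C in 50 mM Tris pH 7.5, 100 mM NaCl, 1 mM DTT; CaCl2 plus 5-FAM/QXL 520 FRET substrate started the reaction. Fluorescence (490/520 nm) read 10 min; rates from 1-5 min slopes, IC50 from 4-parameter logistic fit.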

Test [1] has as its system Calpain activity in SH-SY5Y cells. The experiment in a line: SH-SY5Y Suc-LLVY-AMC fluorescence assay. The test is classed as cell-based. The conditions noted are these: Homo sapiens, read-out: SH-SY5Y + AMC IC50.
The target in the next test is T2, Human Calpain 1/NS1 (Homo sapiens, UniProt P07384).
T2 sequence (P07384 1-714): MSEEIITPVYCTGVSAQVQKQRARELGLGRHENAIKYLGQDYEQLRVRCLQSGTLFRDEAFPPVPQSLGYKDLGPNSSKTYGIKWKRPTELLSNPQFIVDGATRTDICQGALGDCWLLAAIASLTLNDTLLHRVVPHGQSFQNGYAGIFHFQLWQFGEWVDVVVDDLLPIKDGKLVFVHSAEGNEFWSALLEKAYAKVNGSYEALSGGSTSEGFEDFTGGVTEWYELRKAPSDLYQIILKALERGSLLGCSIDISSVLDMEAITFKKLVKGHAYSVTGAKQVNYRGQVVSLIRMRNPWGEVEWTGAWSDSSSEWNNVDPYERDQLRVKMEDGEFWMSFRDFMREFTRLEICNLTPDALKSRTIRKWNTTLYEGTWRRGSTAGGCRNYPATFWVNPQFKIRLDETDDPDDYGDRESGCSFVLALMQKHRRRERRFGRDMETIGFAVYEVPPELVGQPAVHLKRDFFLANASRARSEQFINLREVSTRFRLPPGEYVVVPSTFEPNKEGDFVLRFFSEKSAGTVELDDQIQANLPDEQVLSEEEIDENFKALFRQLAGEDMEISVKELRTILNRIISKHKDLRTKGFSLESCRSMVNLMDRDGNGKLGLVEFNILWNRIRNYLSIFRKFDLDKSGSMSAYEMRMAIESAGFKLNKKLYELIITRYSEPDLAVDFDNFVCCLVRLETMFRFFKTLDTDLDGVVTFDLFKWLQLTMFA
T2 sequence (P04632 1-268 partner): T1 sequence (P04632 1-268 partner)
Put plainly: Calpain inhibition, continuous fluorescence (FRET substrate) assay, calpain 1. The test is classed as biochemical. The conditions noted are these: SensoLyte 520 FRET substrate, 25C. The method in brief: as §1

Test [2] relates to Calpain activity in SH-SY5Y cells. The experiment in a line: SH-SY5Y spectrin breakdown product (SBDP-150) western blot assay. The test is classed as cell-based. Conditions: Homo sapiens, read-out: SH-SY5Y Spectrin IC50.
Another test deals with T3, Human Calpain 9/NS1 (Homo sapiens, UniProt O14815).
T3 sequence (O14815 1-690): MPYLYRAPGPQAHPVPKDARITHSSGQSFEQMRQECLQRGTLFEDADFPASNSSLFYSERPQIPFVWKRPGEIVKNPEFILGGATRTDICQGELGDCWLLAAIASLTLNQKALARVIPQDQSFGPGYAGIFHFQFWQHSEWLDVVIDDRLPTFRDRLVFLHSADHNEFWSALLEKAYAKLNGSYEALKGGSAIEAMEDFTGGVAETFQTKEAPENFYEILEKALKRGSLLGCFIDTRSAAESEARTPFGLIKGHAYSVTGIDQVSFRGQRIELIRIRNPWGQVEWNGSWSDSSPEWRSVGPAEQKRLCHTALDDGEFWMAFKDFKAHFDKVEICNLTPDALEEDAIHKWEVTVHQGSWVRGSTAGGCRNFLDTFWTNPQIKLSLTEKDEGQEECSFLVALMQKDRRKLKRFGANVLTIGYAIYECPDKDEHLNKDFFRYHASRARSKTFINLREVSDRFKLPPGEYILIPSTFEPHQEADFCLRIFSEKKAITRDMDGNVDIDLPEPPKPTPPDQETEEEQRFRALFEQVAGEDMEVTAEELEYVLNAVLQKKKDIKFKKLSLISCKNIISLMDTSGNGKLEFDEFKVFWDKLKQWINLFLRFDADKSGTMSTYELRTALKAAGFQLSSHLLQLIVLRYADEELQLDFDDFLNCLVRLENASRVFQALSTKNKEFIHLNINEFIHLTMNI
T3 sequence (P04632 1-268 partner): T1 sequence (P04632 1-268 partner)
The experiment in a line: Calpain inhibition, continuous fluorescence (FRET substrate) assay, calpain 9. The test is classed as biochemical. Conditions: SensoLyte 520 FRET substrate, 25C. The method in brief:
as §1

[3] abbreviates: SH-SY5Y cells, 100 uM Suc-LLVY-AMC.
[4] abbreviates: SH-SY5Y cells, 25 uM A23187, SBDP-150 western blot.

On to `NC(=O)C(=O)C(Cc1ccccc1)NC(=O)c1cn(C(F)F)nc1-c1cccc2ccncc12` (stereo not drawn) [Compound 22, N-(4-AMINO-3,4-DIOXO-1-PHENYLBUTAN-2-YL)-1-(DIFLUOROMETHYL)-3-(ISOQUINOLIN-8-YL)-1H-PYRAZOLE-4-CARBOXAMIDE], for which the pIC50 was greater than 5.52 at Human Calpain 2/NS1; greater than 5.00 in test [1] (setting [3]); greater than 5.52 on Human Calpain 1/NS1; greater than 5.00 in test [2] (setting [4]); greater than 5.52 at Human Calpain 9/NS1.
`Cc1cc(-c2nsnc2C(=O)NC(Cc2ccccc2)C(=O)C(N)=O)c(C)o1` (stereo not drawn) [Compound 23, N-(4-AMINO-3,4-DIOXO-1-PHENYLBUTAN-2-YL)-4-(2,5-DIMETHYLFURAN-3-YL)-1,2,5-THIADIAZOLE-3-CARBOXAMIDE]: the pIC50 at Human Calpain 2/NS1 is greater than 5.52; in test [1] (setting [3]), greater than 5.00; against Human Calpain 1/NS1, greater than 5.52; in test [2] (setting [4]), greater than 5.00; against Human Calpain 9/NS1, greater than 5.52.
On to `Cc1cc(-c2nn(C(F)F)cc2C(=O)NC(Cc2ccccc2)C(=O)C(N)=O)c(C)o1` (stereo not drawn) [Compound 24, N-(4-AMINO-3,4-DIOXO-1-PHENYLBUTAN-2-YL)-1-(DIFLUOROMETHYL)-3-(2,5-DIMETHYLFURAN-3-YL)-1H-PYRAZOLE-4-CARBOXAMIDE], for which the pIC50 against Human Calpain 2/NS1 was greater than 5.52; in test [1] (setting [3]) it was greater than 5.00; at Human Calpain 1/NS1 it was greater than 5.52; in test [2] (setting [4]) it was 4.60 to 5.00; against Human Calpain 9/NS1, greater than 5.52.
As to `Cc1occc1-c1nn(C(F)F)cc1C(=O)NC(Cc1ccccc1)C(=O)C(N)=O` (stereo not drawn) [Compound 26, N-(4-AMINO-3,4-DIOXO-1-PHENYLBUTAN-2-YL)-1-(DIFLUOROMETHYL)-3-(2-METHYLFURAN-3-YL)-1H-PYRAZOLE-4-CARBOXAMIDE], the pIC50 is greater than 5.52 against Human Calpain 2/NS1; greater than 5.00 in test [1] (setting [3]); greater than 5.52 against Human Calpain 1/NS1; greater than 5.00 in test [2] (setting [4]); greater than 5.52 against Human Calpain 9/NS1.
As for `Cc1cc(C(=O)NC(Cc2ccccc2)C(=O)C(N)=O)nn1-c1ncc2ccccc2n1` (stereo not drawn) [Compound 27, N-(4-AMINO-3,4-DIOXO-1-PHENYLBUTAN-2-YL)-5-METHYL-1-(QUINAZOLIN-2-YL)-1H-PYRAZOLE-3-CARBOXAMIDE], the pIC50 against Human Calpain 2/NS1 was 5.00 to 5.52; in test [1] (setting [3]), greater than 5.00; at Human Calpain 1/NS1, less than 5.00; in test [2] (setting [4]), less than 4.60; against Human Calpain 9/NS1 it was 5.00 to 5.52.
With `Cc1occc1-c1nn(C)cc1C(=O)NC(Cc1ccccc1)C(=O)C(N)=O` (stereo not drawn) [Compound 28, N-(4-AMINO-3,4-DIOXO-1-PHENYLBUTAN-2-YL)-1-METHYL-3-(2-METHYLFURAN-3-YL)-1H-PYRAZOLE-4-CARBOXAMIDE], the pIC50 is greater than 5.52 against Human Calpain 2/NS1; greater than 5.00 in test [1] (setting [3]); greater than 5.52 on Human Calpain 1/NS1; less than 4.60 in test [2] (setting [4]); greater than 5.52 at Human Calpain 9/NS1.
For the molecule `Cc1cc(C(=O)NC(Cc2ccccc2)C(=O)C(N)=O)nn1-c1ncc(-c2ccccc2)cn1` (stereo not drawn) [Compound 29, N-(4-AMINO-3,4-DIOXO-1-PHENYLBUTAN-2-YL)-5-METHYL-1-(5-PHENYLPYRIMIDIN-2-YL)-1H-PYRAZOLE-3-CARBOXAMIDE], the pIC50 on Human Calpain 2/NS1 is greater than 5.52; in test [1] (SH-SY5Y) it was greater than 5.00; on Human Calpain 1/NS1 it was 5.00 to 5.52; in test [2] (SH-SY5Y), less than 4.60; against Human Calpain 9/NS1, 5.00 to 5.52.
In the case of `Cc1cc(C(=O)NC(Cc2ccccc2)C(=O)C(N)=O)n(-c2ncc(-c3ccccc3)cn2)n1` (stereo not drawn) [Compound 30, N-(4-AMINO-3,4-DIOXO-1-PHENYLBUTAN-2-YL)-3-METHYL-1-(5-PHENYLPYRIMIDIN-2-YL)-1H-PYRAZOLE-5-CARBOXAMIDE], the negative logarithm of the IC50 (pIC50) at Human Calpain 2/NS1 is greater than 5.52; in test [1] (SH-SY5Y), less than 4.60; on Human Calpain 1/NS1 it was greater than 5.52; in test [2] (SH-SY5Y), greater than 5.00; against Human Calpain 9/NS1, greater than 5.52.
`Cn1cc(C(=O)NC(Cc2ccccc2)C(=O)C(N)=O)c(-c2cccc3ncoc23)n1` (stereo not drawn) [Compound 31, N-(4-AMINO-3,4-DIOXO-1-PHENYLBUTAN-2-YL)-3-(BENZO[D]OXAZOL-7-YL)-1-METHYL-1H-PYRAZOLE-4-CARBOXAMIDE]: the pIC50 against Human Calpain 2/NS1 was greater than 5.52; in test [1] (setting [3]), greater than 5.00; on Human Calpain 1/NS1, greater than 5.52; in test [2] (setting [4]), greater than 5.00; against Human Calpain 9/NS1, greater than 5.52.
As for `Cn1cc(C(=O)NC(Cc2ccccc2)C(=O)C(N)=O)c(-c2cccc3c2cnn3C)n1` (stereo not drawn) [Compound 32, N-(4-AMINO-3,4-DIOXO-1-PHENYLBUTAN-2-YL)-1-METHYL-3-(1-METHYL-1H-INDAZOL-4-YL)-1H-PYRAZOLE-4-CARBOXAMIDE], the pIC50 against Human Calpain 2/NS1 was greater than 5.52; in test [1] (setting [3]), 4.60 to 5.00; against Human Calpain 1/NS1, greater than 5.52; in test [2] (setting [4]), 4.60 to 5.00; on Human Calpain 9/NS1, greater than 5.52.
As for `Cn1ncc2cccc(-c3nn(C(F)F)cc3C(=O)NC(Cc3ccccc3)C(=O)C(N)=O)c21` (stereo not drawn) [Compound 34, N-(4-AMINO-3,4-DIOXO-1-PHENYLBUTAN-2-YL)-1-(DIFLUOROMETHYL)-3-(1-METHYL-1H-INDAZOL-7-YL)-1H-PYRAZOLE-4-CARBOXAMIDE], the pIC50 against Human Calpain 2/NS1 was greater than 5.52; in test [1] (setting [3]) it was greater than 5.00; at Human Calpain 1/NS1 it was greater than 5.52; in test [2] (setting [4]), 4.60 to 5.00; on Human Calpain 9/NS1 it was greater than 5.52.
As for `Cn1cc(C(=O)NC(Cc2ccccc2)C(=O)C(N)=O)c(-c2cccc3oc(=O)[nH]c23)n1` (stereo not drawn) [Compound 35, N-(4-AMINO-3,4-DIOXO-1-PHENYLBUTAN-2-YL)-1-METHYL-3-(2-OXO-2,3-DIHYDROBENZO[D]OXAZOL-4-YL)-1H-PYRAZOLE-4-CARBOXAMIDE], the pIC50 at Human Calpain 2/NS1 is greater than 5.52; in test [1] (setting [3]), greater than 5.00; at Human Calpain 1/NS1, greater than 5.52; in test [2] (setting [4]) it was greater than 5.00; at Human Calpain 9/NS1, greater than 5.52.
